# Results as given in ChEMBL document CHEMBL1133423, “Synthesis, DNA binding, topoisomerases inhibition and cytotoxic properties of 4-arylcarboxamidopyrrolo-2-carboxyanilides” (Bioorg Med Chem Lett, 2000).
# Legend:
# Nucleic Acid = assay: Binding affinity of compound for calf thymus DNA was determined; assay type: nucleic-acid assay; settings: Bos taurus
# HL-60 = assay: Antiproliferative activity of compound against HL60 leukemia cells; assay type: functional, cell-based; settings: Homo sapiens
Ka (Nucleic Acid),IC50 (HL-60),SMILES
340000 M⁻¹,8.2 µM,NCc1ccc(NC(=O)c2cc(NC(=O)c3ccc(CN)cc3)cn2Cc2ccccc2)cc1
950000 M⁻¹,1.7 µM,NCc1ccc(NC(=O)c2cc(NC(=O)c3ccc(CN)cc3)c[nH]2)cc1
680000 M⁻¹,5.4 µM,Cn1cc(NC(=O)c2ccc(CN)cc2)cc1C(=O)Nc1ccc(CN)cc1
